Experimental data: paper PMC12172326 (Journal of Biomedical Science, 2025)
Entries after “also recorded” stand apart in the source; their conditions may differ. Read-outs that look alike come from different tables or passages of the source. Marks after values point to notes of the source that are not given here.

How the values were obtained:
[1] = LPS-induced inflammation in IMG microglial cells (viability, nitrite, TNF-α); type: cell-based, mouse; conditions: mouse, IMG immortalized microglial cells, IMG, 0.6 to 60 μM, LPS 10 ng/mL, MTS, read-out: cellular viability
Procedure: (§1) IMG cell culture: Mouse immortalized microglial ‘IMG’ cells (Sigma-Aldrich; St. Louis, MO, USA; Cat # SCC-134, RRID:CVCL HC49) were cultured in High Glucose DMEM (Sigma Cat. No. D6546) with 10% heat-inactivated fetal bovine serum (Gibco™ Cat # 10082147), 1 × L-Glutamine (Sigma Cat # TMS-002-C) and 100 U/mL penicillin/streptomycin (Gibco™ Cat # 15140148). IMG cell subculturing was performed according to the product datasheet. In brief, cells were detached from culture plates with Accutase® (Sigma, Cat # A6964), collected, and centrifuged, with the cell pellet subsequently resuspended in media. The cells were then plated for experiments at specified densities and used for a maximum of 10 passages.
(§2) For cytokine/nitrite assessment studies, cells were grown in 24-well (40 K cells/well) tissue culture-treated plates in 500 μl of media. […] This LPS concentration induced a submaximal inflammatory response in IMG pilot studies. Following a 24 h incubation, conditioned media was collected and replaced with 500 μl fresh media to allow assessment of cell viability, TNF-α (ELISA MAX™ Deluxe Set Mouse TNF-α, BioLegend, CA, USA) and nitrite levels (Griess Reagent System, Promega, Madison, WI, USA), according to manufacturer’s instructions.

IMG cells = assay: as above; type: cell-based, mouse; conditions: 24 h
Procedure: as §1, §2

[2] = mouse pharmacokinetics, plasma and brain, I.P.; type: in vivo; conditions: for Kp / Cmax / Tmax / AUC(0-inf) / AUC(0-t): male, C57/BL6 J, ip; for Kp: brain/plasma, from AUCinfinity values
Procedure: Mice were euthanized from 30 min to 18 h after dosing. Blood samples were collected into heparinized tubes, centrifuged (10,000g × 2 min at 4 °C), and plasma collected and immediately stored at − 80 °C. The brain was rapidly excised on wet ice; a sample of cerebral hemisphere was then removed and immediately frozen to − 80 °C.

[3] = cited from earlier work
chicken embryos = assay: chicken embryo teratogenicity at E2.5; type: in vivo
Procedure: All studies with chicken embryos were performed in line with UK Home Office regulations and followed guidelines, standards and practices governed by the University of Aberdeen Ethics Committee (Scotland, UK). Fertilized chicken eggs were acquired from Henry Stewart & Co Ltd, Norfolk UK. […] Embryos were incubated at 37 °C to reach E2.5 (early developmental stages). Eggs were then opened and the embryonic membranes protecting the embryos were removed with forceps. Chicken embryos usually lie on one side, so the left side is directly against the yolk and the right side can be observed. […] Consequent to limited drug diffusion when applied to the right side of an embryo, the right side is deemed the ‘treatment’ side and the left (facing internally towards the yolk sac) is considered normal after treatment and thus can act as an internal control.

SMILES: Nc1cccc2c1C(=S)N(C1CCC(=O)NC1=O)C2=O (stereo not shown) [3-MP, 3-monothiopomalidomide]
- viability at 24 h [1]: > 90%
- IMG cell viability (IMG cells; 100 μM, without LPS, vs vehicle control, MTS): reduced
- concentration significantly reducing LPS-induced TNF-α (IMG cells; IMG, LPS 10 ng/mL, p < 0.001): ≥ 10 µM
- concentration significantly reducing LPS-induced nitrite (IMG cells; IMG, LPS 10 ng/mL, p < 0.05): ≥ 30 µM
- AUCInf ([2]; brain, 2.65 mg/kg I.P.): 676.54 ng·h/g
- AUCLast ([2]; brain, 2.65 mg/kg I.P.): 550.20 ng·h/g
- AUCInf ([2]; brain, 26.5 mg/kg I.P.): 9052.48 ng·h/g
- AUCLast ([2]; brain, 26.5 mg/kg I.P.): 8968.50 ng·h/g
- Kp ([2]; 2.65 mg/kg, 2.65 mg/kg I.P., read-out: Brain/plasma ratio): 0.47
- Kp ([2]; 2.65 mg/kg, across the two doses 26.47 and 2.65 mg/kg I.P., read-out: brain/plasma drug concentration ratio): 0.44 to 0.47
- Kp ([2]; 26.5 mg/kg, 26.5 mg/kg I.P., read-out: Brain/plasma ratio): 0.44
- Cmax ([2]; brain, 2.65 mg/kg I.P.): 454 ng/g
- Tmax ([2]; brain, 2.65 mg/kg I.P.): 30 min
- Cmax ([2]; brain, 26.5 mg/kg I.P.): 4230 ng/g
- Tmax ([2]; brain, 26.5 mg/kg I.P.): 60 min
- AUC(0-inf) ([2]; plasma, 2.65 mg/kg I.P.): 1440 ng·h/mL
- AUC(0-t) ([2]; plasma, 2.65 mg/kg I.P.): 1410 ng·h/mL
- Cmax ([2]; plasma, 2.65 mg/kg I.P.): 978 ng/mL
- Tmax ([2]; plasma, 2.65 mg/kg I.P.): 30 min
- AUC(0-inf) ([2]; plasma, 26.5 mg/kg I.P.): 20800 ng·h/mL
- AUC(0-t) ([2]; plasma, 26.5 mg/kg I.P.): 20700 ng·h/mL
- Cmax ([2]; plasma, 26.5 mg/kg I.P.): 9580 ng/mL
- Tmax ([2]; plasma, 26.5 mg/kg I.P.): 60 min
- oral bioavailability [3]: 38.5%
- developmental effect on chicken embryos (chicken embryos; E2.5, 2.65 to 132 ug, 24 h exposure, vs DMSO controls): not teratogenic; also recorded: no adverse developmental differences or damage
- Normal embryos (chicken embryos; E2.5, dose 2.65 ug, N 2, 24 h): 2
- Normal embryos (chicken embryos; E2.5, dose 5.3 ug, N 3, 24 h): 3
- Normal embryos (chicken embryos; E2.5, dose 20 ug, N 5, 24 h): 5
- Not counted embryos (died soon after application, methodology-related) (chicken embryos; E2.5, dose 26.4 ug, N 7): 2^a
- Normal embryos (chicken embryos; E2.5, dose 26.4 ug, N 7, 24 h): 5
- Not counted embryos (died soon after application, methodology-related) (chicken embryos; E2.5, dose 52.8 ug, N 5): 2^a
- Normal embryos (chicken embryos; E2.5, dose 52.8 ug, N 5, 24 h): 3
- Normal embryos (chicken embryos; E2.5, dose 66 ug, N 3, 24 h): 3
- Normal embryos (chicken embryos; E2.5, dose 132 ug, N 3, 24 h): 3
